Reference: the NIST ThermoML archive (doi:10.1016/j.jct.2017.08.004)

Assay: molar heat capacity at constant pressure
Settings: 101.33 kPa

OC[C@@H](O)C(O)[C@H](O)CO [D-arabitol]
molar heat capacity at constant pressure [J/K/mol]
Settings | Small sample (50 mg) DSC | relaxation calorimetry
250.15 K, Crystal | 167.62 | –
251.15 K, Crystal | 168.09 | –
252.02 K, Crystal | – | 171.93
252.15 K, Crystal | 168.72 | –
253.15 K, Crystal | 169.42 | –
254.15 K, Crystal | 170.21 | –
255.15 K, Crystal | 170.83 | –
256.15 K, Crystal | 171.49 | –
257.15 K, Crystal | 172.29 | –
258.15 K, Crystal | 172.95 | –
259.15 K, Crystal | 173.8 | –
260 K, Crystal | – | 176.9
260.15 K, Crystal | 174.49 | –
261.15 K, Crystal | 175.07 | –
262.08 K, Crystal | – | 178.58
262.15 K, Crystal | 175.71 | –
263.15 K, Crystal | 176.2 | –
264.15 K, Crystal | 176.94 | –
265.15 K, Crystal | 177.53 | –
266.15 K, Crystal | 177.9 | –
267.15 K, Crystal | 178.76 | –
268.15 K, Crystal | 179.47 | –
269.15 K, Crystal | 180.14 | –
270 K, Crystal | – | 183.17
270.15 K, Crystal | 180.88 | –
271.15 K, Crystal | 181.55 | –
272.1 K, Crystal | – | 184.8
272.15 K, Crystal | 182.34 | –
273.15 K, Crystal | 183.05 | 185.17
274.15 K, Crystal | 183.84 | –
275.15 K, Crystal | 184.43 | –
276.15 K, Crystal | 185.01 | –
277.15 K, Crystal | 185.89 | –
278.15 K, Crystal | 186.82 | –
279.15 K, Crystal | 187.46 | –
280 K, Crystal | – | 189.54
280.15 K, Crystal | 187.87 | –
281.15 K, Crystal | 188.79 | –
282.15 K, Crystal | 189.61 | –
282.16 K, Crystal | – | 190.77
283.15 K, Crystal | 190.26 | –
284.15 K, Crystal | 190.76 | –
285.15 K, Crystal | 191.48 | –
286.15 K, Crystal | 192.29 | –
287.15 K, Crystal | 192.88 | –
288.15 K, Crystal | 193.55 | –
289.15 K, Crystal | 194.1 | –
290 K, Crystal | – | 196
290.15 K, Crystal | 195.02 | –
291.15 K, Crystal | 195.84 | –
292.15 K, Crystal | 196.49 | –
292.31 K, Crystal | – | 197.61
293.15 K, Crystal | 197.3 | –
294.15 K, Crystal | 198.27 | –
295.15 K, Crystal | 198.8 | –
296.15 K, Crystal | 199.7 | –
297.15 K, Crystal | 200.51 | –
298.15 K, Crystal | 201.09 | 201.35
299.15 K, Crystal | 201.8 | –
300 K, Crystal | – | 202.57
300.15 K, Crystal | 202.43 | –
301.15 K, Crystal | 203.27 | –
302.15 K, Crystal | 203.89 | –
302.32 K, Crystal | – | 203.84
303.15 K, Crystal | 204.69 | –
304.15 K, Crystal | 205.64 | –
305 K, Crystal | 206.38 | –
305.15 K, Crystal | 206.52 | –
306.15 K, Crystal | 207.29 | –
307.15 K, Crystal | 207.99 | –
308.15 K, Crystal | 209.04 | –
309.15 K, Crystal | 210.24 | –
310 K, Crystal | 210.77 | –
310.15 K, Crystal | 211.11 | –
311.15 K, Crystal | 212.09 | –
312.15 K, Crystal | 213.04 | –
313.15 K, Crystal | 213.93 | –
314.15 K, Crystal | 214.62 | –
315 K, Crystal | 215.3 | –
315.15 K, Crystal | 215.49 | –
316.15 K, Crystal | 216.44 | –
317.15 K, Crystal | 217.32 | –
318.15 K, Crystal | 218.08 | –
319.15 K, Crystal | 218.98 | –
320 K, Crystal | 219.92 | –
320.15 K, Crystal | 219.94 | –
321.15 K, Crystal | 220.72 | –
322.15 K, Crystal | 221.63 | –
323.15 K, Crystal | 222.6 | –
324.15 K, Crystal | 223.41 | –
325 K, Crystal | 224.62 | –
325.15 K, Crystal | 224.24 | –
326.15 K, Crystal | 225.48 | –
327.15 K, Crystal | 226.61 | –
328.15 K, Crystal | 227.57 | –
329.15 K, Crystal | 228.54 | –
330 K, Crystal | 229.51 | –
330.15 K, Crystal | 229.69 | –
331.15 K, Crystal | 231.05 | –
332.15 K, Crystal | 232.16 | –
333.15 K, Crystal | 233.08 | –
334.15 K, Crystal | 234.14 | –
335 K, Crystal | 234.75 | –
335.15 K, Crystal | 235.21 | –
336.15 K, Crystal | 236.36 | –
337.15 K, Crystal | 237.46 | –
338.15 K, Crystal | 238.56 | –
339.15 K, Crystal | 239.77 | –
340 K, Crystal | 240.61 | –
340.15 K, Crystal | 240.89 | –
341.15 K, Crystal | 242.17 | –
342.15 K, Crystal | 243.41 | –
343.15 K, Crystal | 244.65 | –
344.15 K, Crystal | 245.91 | –
345 K, Crystal | 247.41 | –
345.15 K, Crystal | 247.41 | –
346.15 K, Crystal | 248.94 | –
350 K, Crystal | 255.58 | –
394.05 K, Liquid | 448.1 | –
394.15 K, Liquid | 448.11 | –
395 K, Liquid | 447.62 | –
395.15 K, Liquid | 447.51 | –
396.15 K, Liquid | 447.26 | –
397.15 K, Liquid | 446.68 | –
398.15 K, Liquid | 446.29 | –
399.15 K, Liquid | 446.43 | –
400 K, Liquid | 446.52 | –
400.15 K, Liquid | 446.4 | –
401.15 K, Liquid | 446.31 | –
402.15 K, Liquid | 446.59 | –
403.15 K, Liquid | 447.05 | –
404.15 K, Liquid | 446.97 | –
405 K, Liquid | 447.4 | –
405.15 K, Liquid | 447.29 | –
406.15 K, Liquid | 447.83 | –
407.15 K, Liquid | 447.84 | –
408.15 K, Liquid | 448.15 | –
409.15 K, Liquid | 448.6 | –
410 K, Liquid | 449.23 | –
410.15 K, Liquid | 448.95 | –
411.15 K, Liquid | 449.41 | –
412.15 K, Liquid | 449.97 | –
413.15 K, Liquid | 450.76 | –
414.15 K, Liquid | 451.47 | –
415 K, Liquid | 452.02 | –
415.15 K, Liquid | 452.79 | –
416.15 K, Liquid | 453.35 | –
417.15 K, Liquid | 453.87 | –
418.15 K, Liquid | 454.54 | –
419.15 K, Liquid | 456.24 | –
420 K, Liquid | 455.76 | –
420.15 K, Liquid | 456.5 | –
421.15 K, Liquid | 457.07 | –
422.15 K, Liquid | 457.63 | –
423.15 K, Liquid | 457.94 | –
424.15 K, Liquid | 458.28 | –
